Reference: patent US20230072421A1, “TARGETED RADIOPHARMACEUTICALS FOR THE DIAGNOSIS AND TREATMENT OF PROSTATE CANCER” (Bayer AS, priority 2019, published 2023)

Columns and labels:
VCaP cells = assay: Cell proliferation assay (CellTiter-Glo, 5-day exposure), VCaP; assay type: cell-based; settings: 4000 cells/well, Th-227 labelled at 375 kBq/nmol, mean of 1 to 6 experiments
Experimental: (§1) Inhibition of cell proliferation of Thorium-227 labeled PMSA SMOL ligands was tested different prostate cancer cell lines, namely 22Rv1, VCaP, C4-2 (all from ATCC, Manassas, Va., USA) and LNCaP (DMSZ, Braunschweig). Cells were seeded using the following conditions in 384 well plates (Corning) in 30 μl of growth media at 4000 cells/well for VCaP cells and 1000 cells/well for 22Rv1, C4-2 and LNCaP cells.
(§2) Cells were cultivated an incubator at 37° C. and 5% C02 over night. […] In sister plates cell viability at treatment start (d=0) was determined using CellTiter-Glo® assay (CTG, Promega, Madison, Wis., USA), by adding 30 μl per well CTG solution, incubation for 10 min and reading of Luminescence in a PheraStarFSX instrument (BMG Labtech). After a 5-day exposure in the presenced of test compounds, cell viability of treated or untreated control cells was determined again using CellTiter-Glo® assay (Promega, Madison, Wis., USA). […] The DRC software is a Biobook Spreadsheet that was developed by Bayer AG and Bayer Business Services on the IDBS E-Workbook Suite platform (IDBS: ID Business Solutions Ltd., Guildford, UK).

C4-2 cells = assay: Cell proliferation assay (CellTiter-Glo, 5-day exposure), C4-2; assay type: cell-based; settings: C4-2, 1000 cells/well, Th-227 labelled at 375 kBq/nmol, mean of 1 to 6 experiments
Experimental: as §1, §2

22Rv1 cells = assay: Cell proliferation assay (CellTiter-Glo, 5-day exposure), 22Rv1; assay type: cell-based; settings: 22Rv1, 1000 cells/well, Th-227 labelled at 375 kBq/nmol, mean of 1 to 6 experiments
Experimental: as §1, §2

[1] = biological target: T1, PSMA-expressing LNCaP cells (Homo sapiens, UniProt Q04609); assay: Binding competition assay against 3H-PSMA-617 on LNCaP cells; settings: LNCaP cells, 10 nM 3H-PSMA-617, 2 h at 37° C., triplicates; for remaining activity at 0.01 µM: competing non-radiolabeled compound 10 nM; for remaining activity at 0.1 µM: competing non-radiolabeled compound 100 nM
T1 construct: PSMA-expressing LNCaP cells; endogenous in cells; host or cells: LNCaP
Outline: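 Compounds added to LNCaP cells in growth medium, 2 h at 37 °C, 5% CO2. After two ice-cold PBS washes, cells lysed in 0.3 M NaOH and bound radioactivity measured by liquid scintillation counting.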

T1 sequence (Q04609 whole entry): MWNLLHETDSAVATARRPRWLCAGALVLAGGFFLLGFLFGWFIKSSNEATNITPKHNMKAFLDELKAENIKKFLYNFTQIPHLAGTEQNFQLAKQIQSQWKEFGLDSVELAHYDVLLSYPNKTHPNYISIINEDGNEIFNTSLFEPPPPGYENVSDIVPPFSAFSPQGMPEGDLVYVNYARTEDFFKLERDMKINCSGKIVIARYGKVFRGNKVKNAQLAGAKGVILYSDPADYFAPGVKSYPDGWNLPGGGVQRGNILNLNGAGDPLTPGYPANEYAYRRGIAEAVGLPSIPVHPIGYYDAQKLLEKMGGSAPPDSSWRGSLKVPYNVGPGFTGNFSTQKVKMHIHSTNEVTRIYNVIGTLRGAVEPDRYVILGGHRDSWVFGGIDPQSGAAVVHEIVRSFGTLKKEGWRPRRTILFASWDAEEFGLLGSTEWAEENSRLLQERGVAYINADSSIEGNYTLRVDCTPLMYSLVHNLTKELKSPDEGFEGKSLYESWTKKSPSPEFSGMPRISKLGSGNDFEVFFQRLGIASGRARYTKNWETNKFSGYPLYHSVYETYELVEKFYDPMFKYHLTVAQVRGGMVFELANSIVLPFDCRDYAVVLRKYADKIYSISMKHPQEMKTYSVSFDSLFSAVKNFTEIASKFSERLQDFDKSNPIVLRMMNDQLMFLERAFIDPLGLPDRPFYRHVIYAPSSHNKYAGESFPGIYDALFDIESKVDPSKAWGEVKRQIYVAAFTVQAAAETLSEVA

Row | Molecule | Proliferation assay on cancer cell lines by TTCs Default Pivot #3 IC50 [kBq/mL] VCap 4000cells 375kBq/nmol (mean) (VCaP cells) [kBq/mL] | Proliferation assay on cancer cell lines by TTCs Default Pivot #3 IC50 [kBq/mL] C4-2 1000cells 375kBq/nmol (mean) (C4-2 cells) [kBq/mL] | Proliferation assay on cancer cell lines by TTCs Default Pivot #3 IC50 [kBq/mL] 22Rv1 1000cells 375kBq/nmol (mean) (22Rv1 cells) [kBq/mL] | remaining activity at 0.01 µM [1] [%] | remaining activity at 0.1 µM [1] [%]
1 | O=C([O-])CN1CCN(CC(=O)[O-])CCN(CC(=O)NCc2ccc(C(=O)N[C@@H](Cc3ccc4ccccc4c3)C(=O)NCCCC[C@H](NC(=O)N[C@@H](CCC(=O)O)C(=O)O)C(=O)O)nc2)CCN(CC(=O)[O-])CC1.[227Th+4] [Example 25-B-227Th, [^227Th]Thorium (3S,10S,14S)-3-[(naphthalen-2-yl)methyl]-1,4,12-trioxo-1-{5-[(2-{4,7,10-tris[(carboxy-kappaO)methyl]-1,4,7,10-tetraazacyclododecan-1-yl-kappa^4N^1,N^4,N^7,N^10}acetamido)methyl]pyridin-2-yl}-2,5,11,13-tetraazahexadecane-10,14,16-tricarboxylate] | 1.51 | 0.1 | 0.73 | – | –
2 | O=C([O-])CN1CCN(CC(=O)[O-])CCN(CC(=O)Nc2ccc(-c3ccn(CC(=O)N[C@@H](Cc4ccc5ccccc5c4)C(=O)NCCCC[C@H](NC(=O)N[C@@H](CCC(=O)O)C(=O)O)C(=O)O)n3)cc2)CCN(CC(=O)[O-])CC1.[227Th+4] [Example 28-B-227Th, [^227Th]Thorium (4S,11S,15S)-4-[(naphthalen-2-yl)methyl]-2,5,13-trioxo-1-{3-[4-(2-{4,7,10-tris[(carboxy-kappaO)methyl]-1,4,7,10-tetraazacyclododecan-1-yl-kappa^4N^1,N^4,N^7,N^10}acetamido)phenyl]-1H-pyrazol-1-yl}-3,6,12,14-tetraazaheptadecane-11,15,17-tricarboxylate] | 4.77 | 2.22 | 1.22 | – | –
3 | O=C([O-])CN1CCN(CC(=O)[O-])CCN(CC(=O)NCc2ccc(C(=O)N[C@@H](Cc3ccc4ccccc4c3)C(=O)NCCCC[C@H](NC(=O)N[C@@H](CCC(=O)O)C(=O)O)C(=O)O)cn2)CCN(CC(=O)[O-])CC1.[227Th+4] [Example 26-B-227Th, [^227Th]Thorium (3S,10S,14S)-3-[(naphthalen-2-yl)methyl]-1,4,12-trioxo-1-{6-[(2-{4,7,10-tris[(carboxy-kappaO)methyl]-1,4,7,10-tetraazacyclododecan-1-yl-kappa^4N^1,N^4,N^7,N^10}acetamido)methyl]pyridin-3-yl}-2,5,11,13-tetraazahexadecane-10,14,16-tricarboxylate] | 1.15 | 0.12 | 0.87 | – | –
4 | CNc1cc(CC(NC(=O)C2CCC(CNC(=O)Cn3c(C)cc(C(=O)NCCN(CCCN(CCNC(=O)c4cc(C)n(CC(=O)O)c(=O)c4[O-])CCNC(=O)c4cc(C)n(CC(=O)NCC5CCC(C(=O)NC(Cc6cc(NC)c7ccccc7c6)C(=O)NCCCCC(NC(=O)NC(CCC(=O)O)C(=O)O)C(=O)O)CC5)c(=O)c4[O-])CCNC(=O)c4cc(C)n(CC(=O)O)c(=O)c4[O-])c([O-])c3=O)CC2)C(=O)NCCCCC(NC(=O)NC(CCC(=O)O)C(=O)O)C(=O)O)cc2ccccc12.[227Th+4] (stereo not shown) [37-C dimer-227Th] | 1.53 | 0.48 | 1.06 | – | –
5 | [^227Th]Thorium-{N^6-[3-(quinolin-2-yl)-N-{(1r,4S)-4-[(2-{4,7,10-tris[(carboxy-kappaO)methyl]-1,4,7,10-tetraazacyclododecan-1-yl-kappa^4N^1,N^4,N^7,N^10}acetamido)methyl]cyclohexane-1-carbonyl}-L-alanyl]-N^2-{[(1S)-1,3-dicarboxypropyl]carbamoyl}-L-lysinate} [Example 17-B-227Th] | 0.73 | 0.15 | 0.8 | – | –
6 | O=C([O-])CN1CCN(CC(=O)[O-])CCN(CC(=O)NCc2cccc(C(=O)N[C@@H](Cc3ccc4ccccc4c3)C(=O)NCCCC[C@H](NC(=O)N[C@@H](CCC(=O)O)C(=O)O)C(=O)O)c2)CCN(CC(=O)[O-])CC1.[227Th+4] [Example 27-B-227Th, [^227Th]Thorium (3S,10S,14S)-3-[(naphthalen-2-yl)methyl]-1,4,12-trioxo-1-{3-[(2-{4,7,10-tris[(carboxy-kappaO)methyl]-1,4,7,10-tetraazacyclododecan-1-yl-kappa^4N^1,N^4,N^7,N^10}acetamido)methyl]phenyl}-2,5,11,13-tetraazahexadecane-10,14,16-tricarboxylate] | 0.73 | 0.08 | 0.65 | – | –
7 | O=C([O-])CN1CCN(CC(=O)[O-])CCN(CC(=O)NCc2ccc(C(=O)N[C@@H](Cc3ccc4ccccc4c3)C(=O)NCCCC[C@H](NC(=O)N[C@@H](CCC(=O)O)C(=O)O)C(=O)O)cc2)CCN(CC(=O)[O-])CC1.[227Th+4] [Example 24-B-227Th, [^227Th]Thorium (3S,10S,14S)-3-[(naphthalen-2-yl)methyl]-1,4,12-trioxo-1-{4-[(2-{4,7,10-tris[(carboxy-kappaO)methyl]-1,4,7,10-tetraazacyclododecan-1-yl-kappa^4N^1,N^4,N^7,N^10}acetamido)methyl]phenyl}-2,5,11,13-tetraazahexadecane-10,14,16-tricarboxylate] | 0.68 | 0.12 | 0.56 | – | –
8 | Cc1cc(C(=O)NCCN(CCCN(CCNC(=O)c2cc(C)n(CC(=O)O)c(=O)c2[O-])CCNC(=O)c2cc(C)n(CC(=O)NCC3CCC(C(=O)NC(Cc4cnc5ccccc5c4)C(=O)NCCCCC(NC(=O)NC(CCC(=O)O)C(=O)O)C(=O)O)CC3)c(=O)c2[O-])CCNC(=O)c2cc(C)n(CC(=O)O)c(=O)c2[O-])c([O-])c(=O)n1CC(=O)O.[227Th+4] (stereo not shown) [Example 22-C monomer-227Th] | 2.01 | 0.43 | 0.72 | – | –
9 | Cc1cc(C(=O)NCCN(CCCN(CCNC(=O)c2cc(C)n(CC(=O)NCC3CCC(C(=O)NC(Cc4ccc5ccccc5c4)C(=O)NCCCCC(NC(=O)NC(CCC(=O)O)C(=O)O)C(=O)O)CC3)c(=O)c2[O-])CCNC(=O)c2cc(C)n(CC(=O)NCC3CCC(C(=O)NC(Cc4ccc5ccccc5c4)C(=O)NCCCCC(NC(=O)NC(CCC(=O)O)C(=O)O)C(=O)O)CC3)c(=O)c2[O-])CCNC(=O)c2cc(C)n(CC(=O)NCC3CCC(C(=O)NC(Cc4ccc5ccccc5c4)C(=O)NCCCCC(NC(=O)NC(CCC(=O)O)C(=O)O)C(=O)O)CC3)c(=O)c2[O-])c([O-])c(=O)n1CC(=O)O.[227Th+4] (stereo not shown) [1-C trimer-227Th] | 3.11 | 2.24 | 0.74 | – | –
10 | NC1CC2(C1)CC(C(=O)N[C@@H](Cc1ccc3ccccc3c1)C(=O)NCCCC[C@H](NC(=O)N[C@@H](CCC(=O)O)C(=O)O)C(=O)O)C2 (stereo partly drawn) [Example 47-A, (3S,10S,14S)-1-(6-aminospiro[3.3]heptan-2-yl)-3-[(naphthalen-2-yl)methyl]-1,4,12-trioxo-2,5,11,13-tetraazahexadecane-10,14,16-tricarboxylic acid] | – | – | – | 94 | 43
11 | Cc1cc(C(=O)NCCN(CCCN(CCNC(=O)c2cc(C)n(CC(=O)O)c(=O)c2O)CCNC(=O)c2cc(C)n(CC(=O)NCc3ccc(C(=O)N[C@@H](Cc4ccc5ccccc5n4)C(=O)NCCCC[C@H](NC(=O)N[C@@H](CCC(=O)O)C(=O)O)C(=O)O)nc3)c(=O)c2O)CCNC(=O)c2cc(C)n(CC(=O)O)c(=O)c2O)c(O)c(=O)n1CC(=O)O [34-C monomer] | – | – | – | 58 | 10
